The results in this text go back to patent US20200345010A1, “FUNGICIDAL OXADIAZOLES” (FMC Corporation, priority 2019, published 2020).

What all share (format): in vivo
One experiment concerns Phakopsora pachyrhizi. The experiment can be described thus: Test A: Asian soybean rust control on soybean seedlings. Particulars: soybean seedlings sprayed the day before inoculation, 100 = 100% disease control, 0 = none. From the text:
(§1) General protocol for preparing test suspensions for Tests A-C: the test compounds were first dissolved in acetone in an amount equal to 3% of the final volume and then suspended at the desired concentration (in ppm) in acetone and purified water (50/50 mix by volume) containing 250 ppm of the surfactant PEG400 (polyhydric alcohol esters). The resulting test suspensions were then used in Tests A-C.
The test solution was sprayed to the point of run-off on soybean seedlings. The following day the seedlings were inoculated with a spore suspension of Phakopsora pachyrhizi (the causal agent of Asian soybean rust) and incubated in a saturated atmosphere at 22° C. for 24 h, and then moved to a growth chamber at 22° C. for 8 days, after which time visual disease ratings were made.
(§2) A rating of 100 indicates 100% disease control and a rating of 0 indicates no disease control (relative to the controls). A dash (-) indicates the compound was not tested.

Experiment [1] has as its system Puccinia recondita f. sp. tritici. The experiment can be described thus: Test C: wheat leaf rust control on wheat seedlings. Particulars: wheat seedlings sprayed the day before inoculation, 100 = 100% disease control, 0 = none.
Source text: as §1
The test solution was sprayed to the point of run-off on wheat seedlings. The following day the seedlings were inoculated with a spore suspension of Puccinia recondita f. sp. tritici (the causal agent of wheat leaf rust) and incubated in a saturated atmosphere at 20° C. for 24 h, and then moved to a growth chamber at 20° C. for 7 days, after which time disease ratings were made.
as §2

For another experiment, the system named is Zymoseptoria tritici. The experiment is described as follows: Test B: wheat leaf blotch control on wheat seedlings. Particulars: 250 ppm test suspension (asterisk); wheat seedlings sprayed the day before inoculation; 100 = 100% disease control, 0 = none.
Source text: as §1
The test solution was sprayed to the point of run-off on wheat seedlings. The following day the seedlings were inoculated with a spore suspension of Zymoseptoria tritici (the causal agent of wheat leaf blotch) and incubated in a saturated atmosphere at 24° C. for 48 h, and then moved to a growth chamber at 20° C. for 17 days, after which time disease ratings were made.
as §2

Where [2] appears, read: 250 ppm test suspension (asterisk).

Marks after values point to notes of the source that are not given here.

Consider `CS(=O)(=NCc1ccc(-c2noc(C(F)(F)F)n2)cc1)c1ccccc1` (single isomer, unassigned) [Compound 8], for which the “Test A disease control rating” value in the experiment on Phakopsora pachyrhizi (10 ppm test suspension) came to 100%. For the same compound, the “Test C disease control rating” value in experiment [1] (10 ppm test suspension) stood at 68%.

`CS(=O)(=NCc1ccc(-c2noc(C(F)(F)F)n2)cc1)c1ccccc1` (single isomer, unassigned) [Compound 23]: in the experiment with Phakopsora pachyrhizi (50 ppm test suspension), the “Test A disease control rating” value was 100%. Further, the “Test C disease control rating” value in experiment [1] (50 ppm test suspension) is 85%.

For `CS(C)(=O)=Nc1ccc(-c2noc(C(F)(F)F)n2)cc1` [Compound 1], the “Test A disease control rating” value in the experiment on Phakopsora pachyrhizi (10 ppm test suspension) was 73%. In addition, in experiment [1] (10 ppm test suspension), the “Test C disease control rating” value came out at 0%.

For `CS(=O)(Cc1ccccc1)=NCc1ccc(-c2noc(C(F)(F)F)n2)cc1` (stereo not shown) [Compound 2, N-[methyloxido(phenylmethyl)-λ^4-sulfanylidene]-4-[5-(trifluoromethyl)-1,2,4-oxadiazol-3-yl]benzenemethanamine], the “Test A disease control rating” value in the experiment with Phakopsora pachyrhizi (50 ppm test suspension) came out at 100%. In addition, in the experiment on Zymoseptoria tritici, the “Test B disease control rating” value is 93* %. The “Test C disease control rating” value in experiment [1] (50 ppm test suspension) is on record as 100%.

For the compound `CS(=O)(=NCc1ccc(-c2noc(C(F)(F)F)n2)cc1)c1ccc(Cl)cc1` (stereo not shown) [Compound 3], in the experiment with Phakopsora pachyrhizi (10 ppm test suspension), the “Test A disease control rating” value is reported as 94%. In addition, the “Test C disease control rating” value in experiment [1] (10 ppm test suspension) was determined as 0%.

Regarding `CS(=O)(=NCc1ccc(-c2noc(C(F)(F)F)n2)cc1)c1ccccn1` (stereo not shown) [Compound 4], in the experiment on Phakopsora pachyrhizi (10 ppm test suspension), the “Test A disease control rating” value was 98%. The “Test C disease control rating” value in experiment [1] (10 ppm test suspension) is given as 74%.

Turning to `CS(=O)(=Nc1ccc(-c2noc(C(F)(F)F)n2)cc1)c1ccccn1` (stereo not shown) [Compound 6], the “Test A disease control rating” value in the experiment on Phakopsora pachyrhizi (10 ppm test suspension) is reported as 99%. In addition, the “Test C disease control rating” value in experiment [1] (10 ppm test suspension) is listed as 74%.

`CS(=O)(=NCc1ccc(-c2noc(C(F)(F)F)n2)cc1)c1ccc(Br)cc1` (stereo not shown) [Compound 9]: in the experiment with Phakopsora pachyrhizi (10 ppm test suspension), the “Test A disease control rating” value is listed as 92%. For the same compound, the “Test C disease control rating” value in experiment [1] (10 ppm test suspension) worked out at 0%.

For the compound `CS(=O)(=NCc1ccc(-c2noc(C(F)(F)F)n2)cc1)c1ccc(C#N)cc1` (stereo not shown) [Compound 10], the “Test A disease control rating” value in the experiment with Phakopsora pachyrhizi (10 ppm test suspension) was found to be 100%. Moreover, the “Test C disease control rating” value in experiment [1] (10 ppm test suspension) is 55%.

As for `CS(=O)(=NCc1ccc(-c2noc(C(F)(F)F)n2)cc1)c1ccc(C(F)(F)F)cc1` (stereo not shown) [Compound 11], the “Test A disease control rating” value with Phakopsora pachyrhizi (10 ppm test suspension) is listed as 99%. The “Test C disease control rating” value in experiment [1] (10 ppm test suspension) amounted to 0%.

On to `O=S(=NCc1ccc(-c2noc(C(F)(F)F)n2)cc1)(c1ccccc1)C1CC1` (stereo not shown) [Compound 12], for which the “Test A disease control rating” value in the experiment with Phakopsora pachyrhizi (10 ppm test suspension) is 97%. For the same compound, the “Test B disease control rating” value in the experiment with Zymoseptoria tritici is 53* %. Further, in experiment [1] (setting [2]), the “Test C disease control rating” value was 99* %.

In the case of `CS(=O)(=Nc1ccc(-c2noc(C(F)(F)F)n2)cc1)c1cccs1` (stereo not shown) [Compound 13], in the experiment on Phakopsora pachyrhizi (10 ppm test suspension), the “Test A disease control rating” value stood at 100%. The “Test B disease control rating” value in the experiment on Zymoseptoria tritici is 91* %. For the same compound, in experiment [1] (10 ppm test suspension), the “Test C disease control rating” value is 45%.

Turning to `O=S1(=NCc2ccc(-c3noc(C(F)(F)F)n3)cc2)CCOCC1` [Compound 14], the “Test A disease control rating” value in the experiment on Phakopsora pachyrhizi (10 ppm test suspension) came out at 99%. The “Test C disease control rating” value in experiment [1] (10 ppm test suspension) amounted to 91%.

`O=S(CCl)(=NCc1ccc(-c2noc(C(F)(F)F)n2)cc1)c1ccccc1` (stereo not shown) [Compound 15]: in the experiment on Phakopsora pachyrhizi (10 ppm test suspension), the “Test A disease control rating” value is recorded as 97%. For the same compound, the “Test B disease control rating” value in the experiment on Zymoseptoria tritici is given as 28* %. For the same compound, the “Test C disease control rating” value in experiment [1] (setting [2]) was 99* %.

Regarding `O=S1(=Nc2ccc(-c3noc(C(F)(F)F)n3)cc2)CCCC1` [Compound 16], the “Test A disease control rating” value with Phakopsora pachyrhizi (10 ppm test suspension) turned out to be 77%. Also, the “Test B disease control rating” value with Zymoseptoria tritici is 89* %. Also, in experiment [1] (10 ppm test suspension), the “Test C disease control rating” value came out at 0%.

Regarding `COC(=O)CCS(=O)(=NCc1ccc(-c2noc(C(F)(F)F)n2)cc1)c1ccccc1` (stereo not shown) [Compound 18], the “Test A disease control rating” value in the experiment with Phakopsora pachyrhizi (10 ppm test suspension) is reported as 84%. For the same compound, in experiment [1] (10 ppm test suspension), the “Test C disease control rating” value is recorded as 0%.

Regarding `O=S(CCC(F)(F)F)(=NCc1ccc(-c2noc(C(F)(F)F)n2)cc1)c1ccccc1` (stereo not shown) [Compound 19], the “Test A disease control rating” value in the experiment on Phakopsora pachyrhizi (10 ppm test suspension) is reported as 85%. Further, the “Test C disease control rating” value in experiment [1] (10 ppm test suspension) stood at 0%.

Regarding `CS(=O)(=Nc1ccc(-c2noc(C(F)(F)F)n2)cc1)c1ccncc1` (stereo not shown) [Compound 20], the “Test A disease control rating” value with Phakopsora pachyrhizi (10 ppm test suspension) worked out at 98%. The “Test C disease control rating” value in experiment [1] (10 ppm test suspension) is 89%.

In the case of `CS(=O)(=NCc1ccc(-c2noc(C(F)(F)F)n2)cc1)c1ccccc1` (stereo not shown) [Compound 21], the “Test A disease control rating” value in the experiment with Phakopsora pachyrhizi (50 ppm test suspension) was 100%. The “Test B disease control rating” value in the experiment with Zymoseptoria tritici is given as 70* %. In addition, the “Test C disease control rating” value in experiment [1] (setting [2]) is 100* %.

Take `CS(=O)(Cc1ccccc1)=Nc1ccc(-c2noc(C(F)(F)F)n2)cc1` (stereo not shown) [Compound 22]: the “Test A disease control rating” value in the experiment on Phakopsora pachyrhizi (10 ppm test suspension) is given as 54%. The “Test C disease control rating” value in experiment [1] (10 ppm test suspension) is recorded as 89%.

With `CS(=O)(=Nc1ccc(-c2noc(C(F)(F)F)n2)cc1)c1ccsc1` (stereo not shown) [Compound 25, N-(methyloxido-3-thienyl-λ^4-sulfanylidene)-4-[5-(trifluoromethyl)-1,2,4-oxadiazol-3-yl]benzenamine], the “Test A disease control rating” value in the experiment on Phakopsora pachyrhizi (10 ppm test suspension) was 100%. In experiment [1] (10 ppm test suspension), the “Test C disease control rating” value is listed as 86%.

`CS(=O)(=Nc1ccc(-c2noc(C(F)(F)F)n2)cc1)c1ccc2ccccc2c1` (stereo not shown) [Compound 30]: in the experiment with Phakopsora pachyrhizi (10 ppm test suspension), the “Test A disease control rating” value worked out at 0%. Further, in experiment [1] (10 ppm test suspension), the “Test C disease control rating” value was determined as 74%.

For `CCCS(=O)(=NCc1ccc(-c2noc(C(F)(F)F)n2)cc1)c1ccccc1` (stereo not shown) [Compound 32], the “Test A disease control rating” value with Phakopsora pachyrhizi (10 ppm test suspension) is 99%. The “Test C disease control rating” value in experiment [1] (10 ppm test suspension) came to 0%.

For `CS(C)(=O)=NCCc1ccc(-c2noc(C(F)(F)F)n2)cc1` [Compound 33, N-(dimethyloxido-λ^4-sulfanylidene)-4-[5-(trifluoromethyl)-1,2,4-oxadiazol-3-yl]benzeneethanamine], the “Test A disease control rating” value with Phakopsora pachyrhizi (10 ppm test suspension) is listed as 99%. In addition, in experiment [1] (10 ppm test suspension), the “Test C disease control rating” value is 68%.

As for `CCS(=O)(CC)=NCc1ccc(-c2noc(C(F)(F)F)n2)cc1` [Compound 34], in the experiment with Phakopsora pachyrhizi (10 ppm test suspension), the “Test A disease control rating” value came to 100%. In addition, the “Test C disease control rating” value in experiment [1] (10 ppm test suspension) is reported as 41%.

In the case of `CCCS(=O)(Cc1ccccc1)=Nc1ccc(-c2noc(C(F)(F)F)n2)cc1` (stereo not shown) [Compound 35], the “Test A disease control rating” value with Phakopsora pachyrhizi (10 ppm test suspension) is on record as 0%. The “Test C disease control rating” value in experiment [1] (10 ppm test suspension) stood at 0%.

Consider `CCCS(=O)(Cc1ccccc1)=NCc1ccc(-c2noc(C(F)(F)F)n2)cc1` (stereo not shown) [Compound 36], for which the “Test A disease control rating” value in the experiment with Phakopsora pachyrhizi (10 ppm test suspension) worked out at 100%. In addition, in experiment [1] (10 ppm test suspension), the “Test C disease control rating” value is 0%.

Consider `O=S1(=NCc2ccc(-c3noc(C(F)(F)F)n3)cc2)CCCCC1` [Compound 43], for which the “Test A disease control rating” value in the experiment with Phakopsora pachyrhizi (50 ppm test suspension) was 100%. Also, the “Test C disease control rating” value in experiment [1] (50 ppm test suspension) is listed as 99%.

Regarding `COc1ccc(S(C)(=O)=NCc2ccc(-c3noc(C(F)(F)F)n3)cc2)cc1` (stereo not shown) [Compound 47], the “Test A disease control rating” value with Phakopsora pachyrhizi (10 ppm test suspension) turned out to be 99%. Also, the “Test C disease control rating” value in experiment [1] (10 ppm test suspension) is recorded as 32%.

As to `COCCS(=O)(=NCc1ccc(-c2noc(C(F)(F)F)n2)cc1)c1ccccc1` (stereo not shown) [Compound 48, N-[(2-methoxyethyl)oxidophenyl-λ^4-sulfanylidene]-4-[5-(trifluoromethyl)-1,2,4-oxadiazol-3-yl]benzenemethanamine], the “Test A disease control rating” value in the experiment with Phakopsora pachyrhizi (10 ppm test suspension) was 98%. Also, the “Test C disease control rating” value in experiment [1] (10 ppm test suspension) worked out at 45%.

`COC(=O)c1ccc(S(C)(=O)=NCc2ccc(-c3noc(C(F)(F)F)n3)cc2)cc1` (stereo not shown) [Compound 49]: the “Test A disease control rating” value in the experiment with Phakopsora pachyrhizi (10 ppm test suspension) amounted to 0%. Moreover, the “Test C disease control rating” value in experiment [1] (10 ppm test suspension) stood at 0%.

For the compound `CS(C)(=O)=NCc1ccc(-c2noc(C(F)(F)F)n2)cc1` [Compound 50], in the experiment with Phakopsora pachyrhizi (10 ppm test suspension), the “Test A disease control rating” value is 99%. For the same compound, the “Test C disease control rating” value in experiment [1] (50 ppm test suspension) was 100** %.
